In US11365195B2, “Atypical inhibitors of monoamine transporters; method of making; and use thereof” (THE UNITED STATES OF AMERICA, AS REPRESENTED BY THE …, priority 2017, dated 2022):

Experiments:
[1] = target: T1, DAT (Rattus norvegicus, UniProt P23977); assay: DAT radioligand binding in rat striatum ([3H]-WIN35,428 competition); details: for Ki: rat striatum membranes, [3H]-WIN35,428, mean ± SEM, read-out: DAT (rat striatum) Ki ± SEM; for SERT/DAT: ratio of SERT Ki to DAT Ki
T1 construct: 100 μl of tissue preparation (1.5 mg of brain striatum membranes per well); tissue Bioreclamation IVT (Hicksville, N.Y.); host or cells: male Sprague-Dawley rat brain striatum membranes
Method: (§1) Binding affinities of the analogue compounds were evaluated at the DAT and SERT in rat brain membranes, and sigma-1 in guinea pig brain membranes according to the following protocols.
DAT Radioligand Binding in Rat Striatum
The tissue was centrifuged at 20,000 rpm for 10 min at 4° C. The pellet was suspended in cold buffer and centrifuged again using the same settings. The resulting pellet was resuspended in cold buffer at a concentration of 15 mg/mL OWW (original wet weight). On test day, all test compounds were freshly dissolved in 30% DMSO and 70% H2O to a stock concentration of 1 mM or 100 μM When necessary, to assist the solubilization of compounds, 10 μl of glacial acetic acid was added along with the DMSO (in place of 10 μl final H2O volume). Each test compound was then diluted into 10 half-log serial dilutions using 30% DMSO vehicle. […] Non-specific binding was determined using […] Indatraline and total binding was determined with 30% DMSO vehicle. The reaction was started with the addition of the tissue. […] The filters were washed 3 times with 3 mL (3×1 mL/well) of ice cold binding buffer. […] These analyses were performed using GraphPad Prism version 6.00 for Macintosh (GraphPad Software, San Diego, Calif.).

[2] = target: T2, SERT (Rattus norvegicus, UniProt P31652); assay: SERT radioligand binding in rat midbrain ([3H]-Citalopram competition); details: rat midbrain/brain stem membranes, [3H]-Citalopram, mean ± SEM; read-out: SERT (rat mid-brain-stem) Ki ± SEM
T2 construct: 100 μl of tissue preparation (2 mg of brain stem membranes per well); tissue Bioreclamation IVT (Hicksville, N.Y.); host or cells: male Sprague-Dawley rat brain stem membranes
Method: as §1
SERT Radioligand Binding in Rat Midbrain
The tissue was centrifuged at 20,000 rpm for 10 min at 4° C. The pellet was suspended in cold buffer and centrifuged again using the same settings. The resulting pellet was resuspended in cold buffer at a concentration of 20 mg/mL OWW (original wet weight). On test day, all test compounds were freshly dissolved in 30% DMSO and 70% H2O to a stock concentration of 1 mM or 100 μM. When necessary, to assist the solubilization of compounds, 10 μl of glacial acetic acid was added along with the DMSO (in place of 10 μl final H2O volume). Each test compound was then diluted into 10 half-log serial dilutions using 30% DMSO vehicle. […] Non-specific binding was determined using […] Fluoxetine HCl and total binding was determined with 30% DMSO vehicle. The reaction was started with the addition of the tissue. All compound dilutions were tested in triplicate and the reaction incubated for 60 min at room temperature. The reaction was terminated by filtration through Perkin Elmer Uni-Filter-96 GF/B, presoaked for 60 min in 0.3% polyethylenimine, using a Brandel 96-Well Plates Harvester Manifold (Brandel Instruments, Gaithersburg, Md.). The filters were washed 3 times with 3 mL (3×1 mL/well) of ice cold binding buffer. […] These analyses were performed using GraphPad Prism version 6.00 for Macintosh (GraphPad Software, San Diego, Calif.).

[3] = target: T3, σ1R (Cavia porcellus, UniProt Q60492); assay: σ1R radioligand binding in guinea pig cortex ([3H]-(+)-Pentazocine competition); details: for σ1/DAT: ratio of σ1 to DAT affinity values; for σ1/SERT: ratio of σ1 to SERT affinity values
T3 construct: tissue BioReclamation IVT (Hicksville, N.Y.); host or cells: male Hartley guinea pig brain cortex membranes
Method: as §1
σ1R Radioligand Binding in Guinea Pig Cortex
Male Hartley guinea pig cortices were dissected from freshly harvested brains (shipped cold in PBS buffer from BioReclamation IVT (Hicksville, N.Y.)) and frozen at −80° C. for future use. […] The supernatant was collected in a clean tube and the pellet re-suspended in 10 ml of cold buffer and centrifuged again (˜1,200 rpm) for 10 min at 4° C. […] The final pellet was suspended in ice-cold binding buffer at 50 mg/ml concentration. […] All test compounds were freshly dissolved in 30% DMSO and 70% H2O to a stock concentration of 1 mM or 100 μM. When necessary, to assist the solubilization of compounds, 10 μl of glacial acetic acid was added along with the DMSO (in place of 10 μl final H2O volume). Each test compound was then diluted into 10 half-log serial dilutions using 30% DMSO as the vehicle. […] Nonspecific binding was determined using either 10 μM PRE084 or 10 μM (+)-Pentazocine and total binding was determined with 30% DMSO vehicle (3% DMSO final concentration). […] The filters were washed 3 times with 3 ml (3×1 ml/well) of ice cold binding buffer.

[4] = Phase I metabolic stability in rat liver microsomes; assay type: in vitro ADME; details: for Phase I in Liver Microsomes, Negative Control: rat liver microsomes lacking NADPH; for Phase I in Liver Microsomes, Rat: with NADPH, 10 μM compound, 0.5 mg/mL microsomes; for stability to Phase I metabolism (in words): rat liver microsomes fortified with NADPH
Method: Methods: Phase I metabolic stability assays were conducted in rat liver microsomes. For phase I metabolism, the reactions were carried out with 100 mM potassium phosphate buffer, pH 7.4, in the presence of NADPH regenerating system (1.3 mM NADPH, 3.3 mM glucose 6-phosphate, 3.3 mM MgCl2, 0.4 U/mL glucose-6-phosphate dehydrogenase, […] sodium citrate). Reactions in triplicate were initiated by addition of the liver microsomes to the incubation mixture (compound final concentration was 10 μM; 0.5 mg/mL microsomes). Compound disappearance was monitored via LC/MS/MS. […] The total run time for each analyte was 5.0 min.

T2 sequence (P31652 whole entry): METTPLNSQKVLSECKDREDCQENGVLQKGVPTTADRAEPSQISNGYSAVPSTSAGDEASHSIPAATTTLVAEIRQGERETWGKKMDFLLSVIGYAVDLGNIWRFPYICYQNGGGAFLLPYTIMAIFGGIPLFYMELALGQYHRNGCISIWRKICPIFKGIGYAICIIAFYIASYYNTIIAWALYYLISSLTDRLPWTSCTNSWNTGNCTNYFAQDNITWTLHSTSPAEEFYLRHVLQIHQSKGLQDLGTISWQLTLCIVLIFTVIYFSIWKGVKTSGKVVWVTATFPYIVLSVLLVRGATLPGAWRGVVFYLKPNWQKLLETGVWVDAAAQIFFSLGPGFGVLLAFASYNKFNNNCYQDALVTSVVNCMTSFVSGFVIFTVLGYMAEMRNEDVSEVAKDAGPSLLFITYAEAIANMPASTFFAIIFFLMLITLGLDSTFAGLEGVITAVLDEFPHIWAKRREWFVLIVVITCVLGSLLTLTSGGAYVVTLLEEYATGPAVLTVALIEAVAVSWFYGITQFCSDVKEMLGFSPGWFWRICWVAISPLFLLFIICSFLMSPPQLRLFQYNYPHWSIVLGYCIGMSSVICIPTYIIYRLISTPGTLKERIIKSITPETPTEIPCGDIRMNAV
T1 sequence (P23977 whole entry): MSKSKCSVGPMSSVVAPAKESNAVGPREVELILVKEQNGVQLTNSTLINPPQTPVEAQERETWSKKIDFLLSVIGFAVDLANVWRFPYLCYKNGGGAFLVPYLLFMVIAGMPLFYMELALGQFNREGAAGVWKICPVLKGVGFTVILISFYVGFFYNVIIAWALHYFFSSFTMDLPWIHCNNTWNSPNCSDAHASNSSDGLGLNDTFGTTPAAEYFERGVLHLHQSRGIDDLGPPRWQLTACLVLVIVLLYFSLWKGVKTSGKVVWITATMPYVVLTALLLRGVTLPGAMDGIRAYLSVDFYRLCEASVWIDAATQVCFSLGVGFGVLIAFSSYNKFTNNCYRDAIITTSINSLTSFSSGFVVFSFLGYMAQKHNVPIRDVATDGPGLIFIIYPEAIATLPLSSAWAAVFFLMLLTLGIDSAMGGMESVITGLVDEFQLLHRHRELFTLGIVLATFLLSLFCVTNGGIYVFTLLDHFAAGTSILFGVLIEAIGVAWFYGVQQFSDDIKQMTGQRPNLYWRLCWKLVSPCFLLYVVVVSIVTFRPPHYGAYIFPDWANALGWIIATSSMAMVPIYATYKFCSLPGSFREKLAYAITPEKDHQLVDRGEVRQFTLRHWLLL
T3 sequence (Q60492 whole entry): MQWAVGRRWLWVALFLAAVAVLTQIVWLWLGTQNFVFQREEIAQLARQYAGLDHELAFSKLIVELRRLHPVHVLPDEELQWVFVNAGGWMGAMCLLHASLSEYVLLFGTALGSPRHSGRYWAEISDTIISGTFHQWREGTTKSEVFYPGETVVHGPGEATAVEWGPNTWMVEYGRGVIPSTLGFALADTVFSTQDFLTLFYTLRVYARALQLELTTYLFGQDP

Structure (SMILES) | Ki [1] [nM] | SERT/DAT [1] | Ki [2] [nM] | σ1/DAT [3] | σ1/SERT [3] | Phase I in Liver Microsomes, Negative Control ([4]; 0 min) [%] | Phase I in Liver Microsomes, Rat ([4]; 0 min) [%] | Phase I in Liver Microsomes, Negative Control ([4]; 30 min) [%] | Phase I in Liver Microsomes, Rat ([4]; 30 min) [%] | Phase I in Liver Microsomes, Negative Control ([4]; 60 min) [%] | Phase I in Liver Microsomes, Rat ([4]; 60 min) [%] | stability to Phase I metabolism (in words) [4]
C[C@@H]1CN(CCSC(c2ccc(F)cc2)c2ccc(F)cc2)C[C@H](C)N1CC(O)Cc1ccccc1 (stereo partly drawn) [RDS03-095, 1-((2S,6R)-4-(2-((bis(4-fluorophenyl)methyl)thio)ethyl)-2,6-dimethylpiperazin-1-yl)-3-phenylpropan-2-ol] | 2 ± 0.15 | 800.00 | 1600 ± 152 | 7.60 | 0.010 | 100 | 100 | 117 | 42 | 125 | 10 | susceptibility
OC(CN1CCC2(CCN(CCSC(c3ccc(F)cc3)c3ccc(F)cc3)CC2)C1)c1ccccc1 (stereo not shown) [RDS04-002] | 125 ± 9.7 | 0.99 | 124 ± 38.2 | 0.36 | 0.37 | 100 | 100 | 128 | 100 | 125 | 100 | –
CC(O)CN1[C@H](C)CN(CC[S+]([O-])C(c2ccc(F)cc2)c2ccc(F)cc2)C[C@@H]1C (stereo partly drawn) [RDS04-010, 1-((2S,6R)-4-(2-((Bis(4-fluorophenyl)methyl)sulfinyl)ethyl)-2,6-dimethylpiperazin-1-yl)propan-2-ol] | 245 ± 49.7 | 77.55 | 19000 ± 2550 | 1.29 | 0.017 | 100 | 100 | 130 | 115 | 108 | 95 | –
C[C@@H]1CN(CC[S+]([O-])C(c2ccc(F)cc2)c2ccc(F)cc2)C[C@H](C)N1CC(O)Cc1ccccc1 (stereo partly drawn) [RDS04-011, 1-((2S,6R)-4-(2-((Bis(4-fluorophenyl)methyl)sulfinyl)ethyl)-2,6-dimethylpiperazin-1-yl)-3-phenylpropan-2-ol] | 6.78 ± 2.97 | 377.58 | 2560 ± 181 | 11.12 | 0.029 | 100 | 100 | 132 | 58 | 106 | 26 | susceptibility
